# Test results reported in patent US20240270821A1, “GIP/GLP1/GCG TRI-RECEPTOR AGONISTS AND USES THEREOF” (priority 2023, published 2024).
# Like-named read-outs stand apart in the source and are kept apart here. Starred links: 1 amine or outer side, 2 acyl side, 3 side chain; linkers in the order of their positions; H or OH if unused. Non-standard residues stand in square brackets, D forms with d. Groups on a side chain read outwards from the residue. No end group written: not given here. *: point of attachment. C20 diacid = O=C(O)CCCCCCCCCCCCCCCCCCC(=O)*; C18 diacid = O=C(O)CCCCCCCCCCCCCCCCC(=O)*; γGlu = O=C(O)[C@H](CCC(=O)[*:2])N[*:1]; αMe4Pal = C[C@](N)(Cc1ccncc1)C(=O)O; 4Pal = N[C@@H](Cc1ccncc1)C(=O)O; αMeL = CC(C)C[C@](C)(N)C(=O)O; Orn = NCCC[C@H](N)C(=O)O; Dap = NC[C@H](N)C(=O)O; AEEA = NCCOCCOCC(=O)O; Aib = CC(C)(N)C(=O)O
# What was measured:
# Type in all cases: cell-based
# [1] = target: T1, hGLP-1R (Homo sapiens, UniProt P43220); experiment: Functional cAMP activation in the presence of 0.1% casein (no HSA);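 note: intracellular cAMP rise after 30 min at 37 °C read by HTRF, normalized between buffer only (0%) and maximal control ligand (100%), four-parameter variable-slope fit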
# T1 sequence (P43220 24-463): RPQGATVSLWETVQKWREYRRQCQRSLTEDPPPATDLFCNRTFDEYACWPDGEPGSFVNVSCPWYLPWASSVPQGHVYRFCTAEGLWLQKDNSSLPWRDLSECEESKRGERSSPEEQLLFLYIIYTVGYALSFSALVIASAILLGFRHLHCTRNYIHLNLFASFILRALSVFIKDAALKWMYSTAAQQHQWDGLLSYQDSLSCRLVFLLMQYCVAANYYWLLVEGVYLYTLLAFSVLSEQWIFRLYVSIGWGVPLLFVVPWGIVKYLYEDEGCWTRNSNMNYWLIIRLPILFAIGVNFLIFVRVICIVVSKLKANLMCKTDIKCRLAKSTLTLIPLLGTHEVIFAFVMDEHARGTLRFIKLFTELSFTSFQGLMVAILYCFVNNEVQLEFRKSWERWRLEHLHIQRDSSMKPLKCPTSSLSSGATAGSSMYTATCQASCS
# [2] = target: T2, hGIPR (Homo sapiens, UniProt P48546); experiment: Functional cAMP activity in the presence of 1% HSA
# T2 sequence (P48546 22-466): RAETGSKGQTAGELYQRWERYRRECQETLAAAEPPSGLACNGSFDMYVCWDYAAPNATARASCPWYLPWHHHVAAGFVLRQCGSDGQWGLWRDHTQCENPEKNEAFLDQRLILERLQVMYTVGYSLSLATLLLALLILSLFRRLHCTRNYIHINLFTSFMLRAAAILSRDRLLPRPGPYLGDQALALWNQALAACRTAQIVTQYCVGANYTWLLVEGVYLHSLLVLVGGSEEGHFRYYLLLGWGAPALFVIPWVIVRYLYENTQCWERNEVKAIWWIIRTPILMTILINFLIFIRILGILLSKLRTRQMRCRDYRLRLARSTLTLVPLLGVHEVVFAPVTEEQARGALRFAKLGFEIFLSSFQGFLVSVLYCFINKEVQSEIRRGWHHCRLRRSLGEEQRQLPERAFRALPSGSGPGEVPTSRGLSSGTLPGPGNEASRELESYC
# [3] = target: human GLP1-R (Homo sapiens, UniProt P43220); experiment: GLP1-R internalization assay in HEK293 cells; details: for Internalization % TOP: normalized to maximum concentration of GLP-1 (100%)
# Chain of human GLP1-R (P43220 24-463): as the sequence (P43220 24-463) above
# [4] = target: human GcgR (Homo sapiens, UniProt P47871); experiment: Functional cAMP activity in the presence of 1% HSA
# Chain of human GcgR (P47871 26-477): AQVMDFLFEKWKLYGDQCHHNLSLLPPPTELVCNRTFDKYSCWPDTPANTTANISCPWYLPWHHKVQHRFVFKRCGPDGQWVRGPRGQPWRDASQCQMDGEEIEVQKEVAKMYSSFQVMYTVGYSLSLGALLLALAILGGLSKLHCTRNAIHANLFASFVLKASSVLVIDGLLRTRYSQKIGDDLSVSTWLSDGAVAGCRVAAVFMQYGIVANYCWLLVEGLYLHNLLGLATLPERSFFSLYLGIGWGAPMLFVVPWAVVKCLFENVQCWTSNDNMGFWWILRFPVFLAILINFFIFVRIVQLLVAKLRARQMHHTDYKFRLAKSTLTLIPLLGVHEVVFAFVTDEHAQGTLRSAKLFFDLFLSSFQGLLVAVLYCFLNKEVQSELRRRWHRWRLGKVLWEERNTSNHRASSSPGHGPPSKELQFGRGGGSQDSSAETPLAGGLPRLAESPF
# [5] = target: T2, hGIPR; experiment: Functional cAMP activation in the presence of 0.1% casein (no HSA);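 for Relative cAMP EC50, hGIPR: intracellular cAMP rise after 30 min at 37 °C read by HTRF against a standard curve, scaled between buffer alone (0%) and top control ligand concentration (100%), four-parameter fit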;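 for Relative cAMP EC50, hGcgR: intracellular cAMP rise after 30 min at 37 °C, read by HTRF against a cAMP standard curve, scaled from buffer only (0%) to maximal control ligand response (100%)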
# [6] = target: hGcgR (Homo sapiens, UniProt P47871); experiment: as above;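 note: intracellular cAMP rise after 30 min at 37 °C, read by HTRF against a cAMP standard curve, scaled from buffer only (0%) to maximal control ligand response (100%)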
# Chain of hGcgR (P47871 26-477): as above
# [7] = target: T1, hGLP-1R; experiment: Functional cAMP activity in the presence of 1% HSA
# [8] = in the presence of 0.1% casein (no HSA), geometric mean, read-out: Relative cAMP EC50, hGLP-1R
# [9] = HEK293 cells expressing SNAP-GLP-1R, read-out: GLP1R Internalization EC50
# [10] = in the presence of 0.1% casein (no HSA), geometric mean, read-out: Relative cAMP EC50, hGIPR
# [11] = in the presence of 0.1% casein (no HSA), geometric mean, read-out: Relative cAMP EC50, hGcgR
# [12] = read-out: cAMP Rel EC50, hGLP-1R
Substance,"EC50 [1, 8] [µM]","EC50 ([2]; read-out: cAMP Rel EC50, hGIPR) [µM]","EC50 [3, 9] [µM]",Internalization % TOP [3] [%],"EC50 ([4]; read-out: cAMP Rel EC50, hGcgR) [µM]","EC50 [5, 10] [µM]","EC50 [6, 11] [µM]","EC50 [7, 12] [µM]",EC50 [1] [µM],EC50 [2] [µM],EC50 [3] [µM],EC50 [4] [µM],EC50 [5] [µM],EC50 [6] [µM],EC50 [7] [µM]
H-Y[Aib]QGTFTSDFS[Orn][αMeL]LDKK([AEEA-AEEA-γGlu-C20 diacid])AQ[Aib]AFIEYLLE[Aib]GPSSGAPPPSEG-NH2 [Example 71],0.00312,0.0481,0.0588,68.6,2.8,0.000105,0.00874,1.01,–,–,–,–,–,–,–
H-Y[Aib]QGTFTSDFSK[αMeL]LDKK([AEEA-γGlu-C20 diacid])AQ[Aib]AFIEYLLAGGPSSGEPPPSSG-NH2 [Example 7],0.00211,0.0506,0.0526,76.3,1.21,0.000203,0.00505,0.494,–,–,–,–,–,–,–
Y[Aib]QGTFTSD[4Pal]SK[αMeL]LDKK([AEEA-γGlu-C20 diacid])AQ[Aib]AFIEYLLAGGPSSGEPPPSGE-NH2 [Example 28],0.00368,0.0638,0.0818,76.2,1.55,0.000255,0.0126,0.686,–,–,–,–,–,–,–
H-Y[Aib]QGTFTSDFS[Orn][αMeL]LDKK([AEEA-AEEA-γGlu-C20 diacid])AQ[Aib]AFIEYLLE[Aib]GPSSGEPPPGEG-NH2 [Example 69],0.00325,0.0256,0.0719,58.2,0.387,0.000136,0.00475,0.279,–,–,–,–,–,–,–
H-Y[Aib]QGTFTSD[4Pal]SR[αMeL]LDKK([AEEA-γGlu-C18 diacid])AQ[Aib]AFIEYLLE[Aib]GPSSGAPPPSGE-NH2 [Example 114],0.00638,0.0196,0.0472,62.9,1.12,0.00014,0.00563,1.37,–,–,–,–,–,–,–
Y[Aib]QGTFTSDFSK[αMeL]LDKK([AEEA-γGlu-C18 diacid])AQ[Aib]AFIEYLLEGGPSSGAPPPSEG-NH2 [Example 48],0.00299,0.0469,0.044,55.2,0.728,0.00027,0.0038,0.57,–,–,–,–,–,–,–
H-Y[Aib]QGTFTSDFSK[αMeL]LDKK([AEEA-γGlu-C20 diacid])AQ[Aib]AFIEWLLEGGPSSGAPPPSEG-NH2 [Example 37],0.00166,0.0564,0.0516,68.3,1.87,0.000207,0.00683,0.514,–,–,–,–,–,–,–
H-Y[Aib]QGTFTSDFS[Orn][αMeL]LDKK([AEEA-AEEA-γGlu-C18 diacid])AQ[Aib]AFIEYLLEGGPSSGAPPPGES-NH2 [Example 118],0.00603,0.0634,0.0823,46.4,2.46,0.00043,0.00702,1.45,–,–,–,–,–,–,–
H-Y[Aib]QGTFTSDFS[Orn][αMeL]LDKK([AEEA-AEEA-γGlu-C20 diacid])AQ[Aib]AFIEYLLE[Aib]GPSSGAPPPGEG-NH2 [Example 70],–,–,–,61.3,–,–,–,–,0.00271,0.0274,0.06,0.717,0.000102,0.00604,0.62
H-Y[Aib]QGTFTSDFSK[αMeL]LDKK([AEEA-γGlu-C18 diacid])AQ[Aib]QFIEYLLEGGPSSGAPPPSEG-NH2 [Example 51],0.0058,0.0984,0.0892,55.7,0.856,0.000421,0.00515,1.21,–,–,–,–,–,–,–
H-Y[Aib]QGTFTSDFSK[αMeL]LDKK([AEEA-γGlu-C20 diacid])AQ[Aib]AFIEYLLE[Aib]GPSSGAPPPGGS-NH2 [Example 43],0.00155,0.0296,0.0582,68.3,0.85,0.000101,0.00271,0.539,–,–,–,–,–,–,–
H-Y[Aib]QGTFTSDYSQ[αMeL]LDKK([AEEA-γGlu-C18 diacid])AQ[Aib]AFIEYLLEGGESSGAPPPSGS-NH2 [Example 362],0.00177,0.0387,0.0228,77.5,1.45,0.000262,0.00604,0.45,–,–,–,–,–,–,–
H-Y[Aib]QGTFTSDFSK[αMeL]LDKK([AEEA-γGlu-C20 diacid])AQ[Aib]AFIEYLLAGGPSSGAPPPGGS-NH2 [Example 16],0.00154,0.0359,0.0378,74.6,1.66,0.000217,0.00884,0.281,–,–,–,–,–,–,–
H-Y[Aib]QGTFTSDFS[Orn][αMeL]LDKK([AEEA-γGlu-C18 diacid])AQ[Aib]AFIEWLLEGGHSSGAPPPSGT-NH2 [Example 171],0.00289,0.0271,0.0614,36.1,0.502,0.0002,0.00386,0.287,–,–,–,–,–,–,–
H-Y[Aib]QGTFTSDFS[Orn][αMeL]LDKK([AEEA-γGlu-C18 diacid])AQ[Aib]AFIEWLLEGGHSSGAPPPSGE-NH2 [Example 122],0.00393,0.0326,0.0574,43.7,0.548,0.000189,0.00395,0.468,–,–,–,–,–,–,–
H-Y[Aib]QGTFTSDYS[Dap][αMeL]LDKK([AEEA-γGlu-C18 diacid])AQ[Aib]AFIEYLLEGGESSGAPPPSGS-NH2 [Example 360],0.00586,0.0783,0.214,66.1,1.47,0.00045,0.00528,0.989,–,–,–,–,–,–,–
H-Y[Aib]QGTFTSDFS[Orn][αMeL]LDKK([AEEA-AEEA-γGlu-C18 diacid])AQ[Aib]AFIEYLLE[Aib]GPSSGEPPPSGT-NH2 [Example 167],0.00619,0.0247,0.0759,44.7,0.938,0.000101,0.00505,1.3,–,–,–,–,–,–,–
H-Y[Aib]QGTFTSDFS[Orn][αMeL]LDKK([AEEA-γGlu-C18 diacid])AQ[αMe4Pal]AFIEYLIE[Aib]GESSGAPPPSGS-NH2 [Example 229],0.00158,0.0278,0.0424,31.4,0.332,0.000179,0.0023,0.249,–,–,–,–,–,–,–
